Patent US8192962B2, “Processes for detecting toxic substances” (Daikin Industries, Ltd., priority 2001, dated 2012)

Test system: Genes belonging to other category
Assay: DNA chip mRNA expression in yeast, genes belonging to other category (Table 9)
Type: cell-based, Saccharomyces cerevisiae S288C
Method: Yeast (Saccharomyces cerevisiae S288C (α SUC2mal mel gap2 CUP1)) were incubated at 25° C. on YPD medium (yeast extract 1%, polypepton 2%, glucose 2%). One of toxic chemical substances was added to the cells at logarithmic growth phase, and the cells were further incubated for two hours. Cells were cultured without any chemical substance in the same condition, and were used as control. Concentrations of the chemical substances were defined to inhibit the growth of the yeast but not lead to death.
After completion of the incubation, the culture was centrifuged to collect the cells. To the cells, sodium acetate buffer (50 mM sodium acetate, 10 mM EDTA, 1% SDS) was added, and the mixture was shaken at 65° C. for five minutes, followed by returning to room temperature, and obtaining the supernatant, of which the procedures were repeated two times. To the supernatant, ½ amount of a solution of phenol/chloroform was added, and the mixture was centrifuged to give a supernatant, which was added with an equal amount of chloroform, and the mixture was centrifuged to give a supernatant. To the supernatant, an equal amount of isopropanol containing 0.3 M sodium acetate was added, and the mixture was allowed to stand at room temperature for 30 minutes, after which the mixture was centrifuged to give a sediment of the whole RNAs. Seventy % ethanol was added to the sediment, and the mixture was again centrifuged to give a sediment, which was then dried and dissolved in water. mRNA was isolated from the whole RNAs as followings. In view of the fact that a poly A chain is attached to the 3′ terminus of mRNA, a polynucleotide having a poly T structure which was immobilized on the surface of latex beads was used to trap the mRNA, and then the mRNA was washed and eluted with spine column (Oligotex-dT30<Super>mRNA Purification Kit, Takara). Reverse transcription of the mRNA was conducted with a reverse transcriptase (Super Script II Reverse Transcriptase; catalogue No. 18064-014, GibcoBRL) using fluorescence-labeled nucleotides to give cDNAs that were introduced with Cy3-dUTP or Cy5-dUTP during the reverse transcription.
The labeled cDNAs were dissolved in TE buffer (10mM Tris-HCl/1 mM EDTA, pH8.0), and the solution was dropped on the DNA chip containing the whole genes of yeast (DNA Chip Research Inc. Japan) so that the cDNAs were hybridized on the DNA chip at 65° C. for over 12 hours. The fluoresces intensity of the DNA chip was read with a scanner, and the ratio relative to the fluorescence intensity resulting from the absence of chemical substance was estimated as the following, which is shown in Tables 1 to 9: […]

Compound: CN(C)C(=S)SSC(=S)N(C)C [(10), Tetramethylthiuram disulfide]
- The level of expressed mRNA in the presence of chemical substance/The level of expressed mRNA in the absence of chemical substance (yeast gene YAR009C): 1.4
- The level of expressed mRNA in the presence of chemical substance/The level of expressed mRNA in the absence of chemical substance (yeast gene YAR010C): 1.1
- The level of expressed mRNA in the presence of chemical substance/The level of expressed mRNA in the absence of chemical substance (yeast gene YBL005W-A): 1.5
- The level of expressed mRNA in the presence of chemical substance/The level of expressed mRNA in the absence of chemical substance (yeast gene YBL041W): 2.6
- The level of expressed mRNA in the presence of chemical substance/The level of expressed mRNA in the absence of chemical substance (yeast gene YBL043W): 14.7
- The level of expressed mRNA in the presence of chemical substance/The level of expressed mRNA in the absence of chemical substance (yeast gene YBL078C): 15.2
- The level of expressed mRNA in the presence of chemical substance/The level of expressed mRNA in the absence of chemical substance (yeast gene YBL101C): 1.4
- The level of expressed mRNA in the presence of chemical substance/The level of expressed mRNA in the absence of chemical substance (yeast gene YBR010W): 0.7
- The level of expressed mRNA in the presence of chemical substance/The level of expressed mRNA in the absence of chemical substance (yeast gene YBR031W): 1.0
- The level of expressed mRNA in the presence of chemical substance/The level of expressed mRNA in the absence of chemical substance (yeast gene YBR170C): 4.2
- The level of expressed mRNA in the presence of chemical substance/The level of expressed mRNA in the absence of chemical substance (yeast gene YBR201W): 1.0
- The level of expressed mRNA in the presence of chemical substance/The level of expressed mRNA in the absence of chemical substance (yeast gene YBR214W): 3.5
- The level of expressed mRNA in the presence of chemical substance/The level of expressed mRNA in the absence of chemical substance (yeast gene YBR239C): 1.2
- The level of expressed mRNA in the presence of chemical substance/The level of expressed mRNA in the absence of chemical substance (yeast gene YBR286W): 1.6
- The level of expressed mRNA in the presence of chemical substance/The level of expressed mRNA in the absence of chemical substance (yeast gene YBR290W): 1.8
- The level of expressed mRNA in the presence of chemical substance/The level of expressed mRNA in the absence of chemical substance (yeast gene YCL020W): 2.4
- The level of expressed mRNA in the presence of chemical substance/The level of expressed mRNA in the absence of chemical substance (yeast gene YCL027W): 16.3
- The level of expressed mRNA in the presence of chemical substance/The level of expressed mRNA in the absence of chemical substance (yeast gene YCL033C): 1.4
- The level of expressed mRNA in the presence of chemical substance/The level of expressed mRNA in the absence of chemical substance (yeast gene YCR004C): 2.1
- The level of expressed mRNA in the presence of chemical substance/The level of expressed mRNA in the absence of chemical substance (yeast gene YCR062W): 1.3
- The level of expressed mRNA in the presence of chemical substance/The level of expressed mRNA in the absence of chemical substance (yeast gene YCR071C): 1.2
- The level of expressed mRNA in the presence of chemical substance/The level of expressed mRNA in the absence of chemical substance (yeast gene YCR088W): 0.9
- The level of expressed mRNA in the presence of chemical substance/The level of expressed mRNA in the absence of chemical substance (yeast gene YCR091W): 1.2
- The level of expressed mRNA in the presence of chemical substance/The level of expressed mRNA in the absence of chemical substance (yeast gene YDL008W): 3.0
- The level of expressed mRNA in the presence of chemical substance/The level of expressed mRNA in the absence of chemical substance (yeast gene YDL097C): 2.3
- The level of expressed mRNA in the presence of chemical substance/The level of expressed mRNA in the absence of chemical substance (yeast gene YDL238C): 2.7
- The level of expressed mRNA in the presence of chemical substance/The level of expressed mRNA in the absence of chemical substance (yeast gene YDR055W): 2.4
- The level of expressed mRNA in the presence of chemical substance/The level of expressed mRNA in the absence of chemical substance (yeast gene YDR080W): 2.6
- The level of expressed mRNA in the presence of chemical substance/The level of expressed mRNA in the absence of chemical substance (yeast gene YDR084C): 0.6
- The level of expressed mRNA in the presence of chemical substance/The level of expressed mRNA in the absence of chemical substance (yeast gene YDR085C): 2.3
- The level of expressed mRNA in the presence of chemical substance/The level of expressed mRNA in the absence of chemical substance (yeast gene YDR104C): 2.7
- The level of expressed mRNA in the presence of chemical substance/The level of expressed mRNA in the absence of chemical substance (yeast gene YDR115W): 1.0
- The level of expressed mRNA in the presence of chemical substance/The level of expressed mRNA in the absence of chemical substance (yeast gene YDR169C): 1.4
- The level of expressed mRNA in the presence of chemical substance/The level of expressed mRNA in the absence of chemical substance (yeast gene YDR188W): 1.6
- The level of expressed mRNA in the presence of chemical substance/The level of expressed mRNA in the absence of chemical substance (yeast gene YDR259C): 1.8
- The level of expressed mRNA in the presence of chemical substance/The level of expressed mRNA in the absence of chemical substance (yeast gene YDR264C): 3.4
- The level of expressed mRNA in the presence of chemical substance/The level of expressed mRNA in the absence of chemical substance (yeast gene YDR276C): 2.7
- The level of expressed mRNA in the presence of chemical substance/The level of expressed mRNA in the absence of chemical substance (yeast gene YDR315C): 1.6
- The level of expressed mRNA in the presence of chemical substance/The level of expressed mRNA in the absence of chemical substance (yeast gene YDR329C): 1.0
- The level of expressed mRNA in the presence of chemical substance/The level of expressed mRNA in the absence of chemical substance (yeast gene YDR358W): 3.2
- The level of expressed mRNA in the presence of chemical substance/The level of expressed mRNA in the absence of chemical substance (yeast gene YDR378C): 1.3
- The level of expressed mRNA in the presence of chemical substance/The level of expressed mRNA in the absence of chemical substance (yeast gene YDR388W): 0.9
- The level of expressed mRNA in the presence of chemical substance/The level of expressed mRNA in the absence of chemical substance (yeast gene YDR427W): 2.0
- The level of expressed mRNA in the presence of chemical substance/The level of expressed mRNA in the absence of chemical substance (yeast gene YDR432W): 0.8
- The level of expressed mRNA in the presence of chemical substance/The level of expressed mRNA in the absence of chemical substance (yeast gene YDR481C): 1.6
